The values below are quoted from earlier work in article PMC6748410, “A phase 2 study of an oral mTORC1/mTORC2 kinase inhibitor (CC-223) for non-pancreatic neuroendocrine tumors with or without carcinoid symptoms” (PLoS ONE, 2019).

For the series, the system named is NET arising from the pancreas, lung, or GI tract. Further details: method as in PMID 26703889, PMID 21306238. The following applies: cited from earlier work.

Consider `CO[C@H]1C[C@@H]2CC[C@@H](C)[C@@](O)(O2)C(=O)C(=O)N2CCCC[C@H]2C(=O)O[C@H]([C@H](C)C[C@@H]2CC[C@@H](OCCO)[C@H](OC)C2)CC(=O)[C@H](C)/C=C(\C)[C@@H](O)[C@@H](OC)C(=O)[C@H](C)C[C@H](C)/C=C/C=C/C=C/1C` [everolimus], for which the “Median progression-free survival (PFS)” value is 11.0 months.
